# Reference: article PMC2782911 (Cancer, 2009)
# Where two headings read alike, the source gives them in different places.
# Key:
# [1] = target: recombinant human HDAC3 (Homo sapiens, UniProt O15379); test: Recombinant human HDAC3 activity assay; assay type: biochemical; conditions: for inhibition of HDAC3: 1 mM, recombinant human isoform
# [2] = tested on: MCF7 cells; test: Colony formation assay in MCF7 cells; conditions: vector-transfected MCF7 cells, increasing concentrations, two weeks
# [3] = target: T1, rat Slc5a8 (Rattus norvegicus, UniProt D3Z9E5); test: Inhibition of [14C]nicotinate uptake via rat Slc5a8 expressed in HRPE cells; assay type: cell-based; conditions: read-out: inhibition of nicotinate uptake
# T1 sequence (D3Z9E5 1-611): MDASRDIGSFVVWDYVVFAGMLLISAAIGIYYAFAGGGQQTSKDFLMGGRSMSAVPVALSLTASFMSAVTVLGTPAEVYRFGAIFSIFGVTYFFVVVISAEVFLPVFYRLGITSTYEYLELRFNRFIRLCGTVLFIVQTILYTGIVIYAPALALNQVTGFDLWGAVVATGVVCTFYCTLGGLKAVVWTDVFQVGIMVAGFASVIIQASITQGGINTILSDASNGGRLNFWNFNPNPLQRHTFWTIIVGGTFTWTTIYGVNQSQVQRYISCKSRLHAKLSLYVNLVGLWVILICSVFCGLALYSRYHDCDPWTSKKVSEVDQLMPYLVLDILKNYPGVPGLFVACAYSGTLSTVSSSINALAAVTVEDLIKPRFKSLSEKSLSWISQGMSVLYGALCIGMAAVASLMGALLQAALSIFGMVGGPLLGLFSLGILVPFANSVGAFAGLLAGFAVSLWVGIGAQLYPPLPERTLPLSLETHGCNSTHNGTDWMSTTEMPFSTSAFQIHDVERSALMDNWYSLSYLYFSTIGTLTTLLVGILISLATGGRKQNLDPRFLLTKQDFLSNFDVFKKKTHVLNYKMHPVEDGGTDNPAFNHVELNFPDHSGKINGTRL
# [4] = target: T2, human SLC5A8 (Homo sapiens, UniProt Q8N695); test: Substrate-induced currents in X. laevis oocytes expressing human SLC5A8; assay type: cell-based; conditions: for inward currents in SLC5A8-expressing oocytes: 1 mM compound, in the presence of NaCl, not detectable in absence of Na+, -50 mV; for K0.5 (substrate concentration for half-maximal current): saturation kinetics of substrate-induced currents, human SLC5A8 oocytes
# T2 sequence (Q8N695 1-610): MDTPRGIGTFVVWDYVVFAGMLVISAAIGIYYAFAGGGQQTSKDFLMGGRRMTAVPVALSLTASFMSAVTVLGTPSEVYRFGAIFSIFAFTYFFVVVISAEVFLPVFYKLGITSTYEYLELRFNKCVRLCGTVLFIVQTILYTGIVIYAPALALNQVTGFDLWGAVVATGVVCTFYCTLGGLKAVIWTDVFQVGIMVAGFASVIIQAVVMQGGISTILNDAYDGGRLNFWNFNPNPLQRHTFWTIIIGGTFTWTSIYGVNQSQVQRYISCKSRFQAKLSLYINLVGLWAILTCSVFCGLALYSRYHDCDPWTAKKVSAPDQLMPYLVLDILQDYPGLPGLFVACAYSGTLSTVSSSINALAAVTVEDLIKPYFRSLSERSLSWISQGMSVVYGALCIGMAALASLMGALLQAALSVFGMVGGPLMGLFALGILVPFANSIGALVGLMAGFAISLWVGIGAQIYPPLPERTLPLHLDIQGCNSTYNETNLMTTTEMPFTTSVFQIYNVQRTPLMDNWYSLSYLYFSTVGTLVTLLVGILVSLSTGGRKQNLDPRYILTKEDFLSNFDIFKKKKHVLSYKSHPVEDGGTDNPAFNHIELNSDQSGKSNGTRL
# [5] = tested on: MCF7 cells; test: Apoptosis of MCF7 cells by FACS analysis
# [6] = tested on: HDACs in MCF7 cells; test: HDAC activity in lysates of MCF7 cells cultured with compound; conditions: vector-transfected MCF7 cells cultured with 1 mM compound
# [7] = target: T3, mouse Slc5a8 (Mus musculus, UniProt Q8BYF6); test: Inhibition of [14C]nicotinate uptake via mouse Slc5a8 expressed in HRPE cells; assay type: cell-based; conditions: read-out: inhibition of nicotinate uptake
# T3 sequence (Q8BYF6 1-611): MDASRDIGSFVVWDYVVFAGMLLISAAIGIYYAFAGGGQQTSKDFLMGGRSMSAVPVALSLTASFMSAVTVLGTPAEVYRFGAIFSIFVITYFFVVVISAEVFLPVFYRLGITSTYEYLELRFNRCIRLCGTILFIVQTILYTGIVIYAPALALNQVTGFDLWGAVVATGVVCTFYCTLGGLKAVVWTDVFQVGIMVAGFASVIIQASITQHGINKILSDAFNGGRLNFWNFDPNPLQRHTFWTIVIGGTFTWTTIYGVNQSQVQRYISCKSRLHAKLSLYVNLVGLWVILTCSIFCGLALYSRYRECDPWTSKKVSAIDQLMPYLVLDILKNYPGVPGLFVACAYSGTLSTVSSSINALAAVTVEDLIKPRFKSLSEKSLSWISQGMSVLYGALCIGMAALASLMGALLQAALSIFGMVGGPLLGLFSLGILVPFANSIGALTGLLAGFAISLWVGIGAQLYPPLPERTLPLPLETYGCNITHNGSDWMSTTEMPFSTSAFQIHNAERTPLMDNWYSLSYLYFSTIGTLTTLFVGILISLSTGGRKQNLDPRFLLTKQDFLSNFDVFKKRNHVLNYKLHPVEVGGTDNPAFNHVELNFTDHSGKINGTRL
# [8] = target: recombinant human HDAC1 (Homo sapiens, UniProt Q13547); test: Recombinant human HDAC1 activity assay; assay type: biochemical; conditions: for inhibition of HDAC1: 1 mM, recombinant human isoform
# recombinant human HDAC1, sequence (Q13547 whole entry, canonical isoform): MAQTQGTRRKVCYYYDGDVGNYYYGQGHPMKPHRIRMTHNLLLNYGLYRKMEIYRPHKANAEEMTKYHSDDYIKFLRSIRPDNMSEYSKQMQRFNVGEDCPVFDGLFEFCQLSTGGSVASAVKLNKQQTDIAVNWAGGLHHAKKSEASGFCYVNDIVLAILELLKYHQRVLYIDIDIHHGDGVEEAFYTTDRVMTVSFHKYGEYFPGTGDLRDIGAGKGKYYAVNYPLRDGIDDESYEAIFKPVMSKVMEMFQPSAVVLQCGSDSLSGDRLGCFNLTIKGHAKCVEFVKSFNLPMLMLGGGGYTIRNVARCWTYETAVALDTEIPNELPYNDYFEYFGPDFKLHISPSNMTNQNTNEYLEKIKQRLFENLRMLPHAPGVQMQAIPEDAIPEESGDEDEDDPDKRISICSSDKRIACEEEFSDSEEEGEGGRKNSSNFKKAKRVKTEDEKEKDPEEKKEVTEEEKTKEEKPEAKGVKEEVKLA
# [9] = target: T2, human SLC5A8; test: Inhibition of [14C]nicotinate uptake via human SLC5A8 expressed in HRPE cells; assay type: cell-based
# [10] = target: recombinant human HDAC9 (Homo sapiens, UniProt Q9UKV0); test: Recombinant human HDAC9 activity assay; assay type: biochemical; conditions: 1 mM, recombinant human isoform
# recombinant human HDAC9, sequence (Q9UKV0 whole entry, canonical isoform): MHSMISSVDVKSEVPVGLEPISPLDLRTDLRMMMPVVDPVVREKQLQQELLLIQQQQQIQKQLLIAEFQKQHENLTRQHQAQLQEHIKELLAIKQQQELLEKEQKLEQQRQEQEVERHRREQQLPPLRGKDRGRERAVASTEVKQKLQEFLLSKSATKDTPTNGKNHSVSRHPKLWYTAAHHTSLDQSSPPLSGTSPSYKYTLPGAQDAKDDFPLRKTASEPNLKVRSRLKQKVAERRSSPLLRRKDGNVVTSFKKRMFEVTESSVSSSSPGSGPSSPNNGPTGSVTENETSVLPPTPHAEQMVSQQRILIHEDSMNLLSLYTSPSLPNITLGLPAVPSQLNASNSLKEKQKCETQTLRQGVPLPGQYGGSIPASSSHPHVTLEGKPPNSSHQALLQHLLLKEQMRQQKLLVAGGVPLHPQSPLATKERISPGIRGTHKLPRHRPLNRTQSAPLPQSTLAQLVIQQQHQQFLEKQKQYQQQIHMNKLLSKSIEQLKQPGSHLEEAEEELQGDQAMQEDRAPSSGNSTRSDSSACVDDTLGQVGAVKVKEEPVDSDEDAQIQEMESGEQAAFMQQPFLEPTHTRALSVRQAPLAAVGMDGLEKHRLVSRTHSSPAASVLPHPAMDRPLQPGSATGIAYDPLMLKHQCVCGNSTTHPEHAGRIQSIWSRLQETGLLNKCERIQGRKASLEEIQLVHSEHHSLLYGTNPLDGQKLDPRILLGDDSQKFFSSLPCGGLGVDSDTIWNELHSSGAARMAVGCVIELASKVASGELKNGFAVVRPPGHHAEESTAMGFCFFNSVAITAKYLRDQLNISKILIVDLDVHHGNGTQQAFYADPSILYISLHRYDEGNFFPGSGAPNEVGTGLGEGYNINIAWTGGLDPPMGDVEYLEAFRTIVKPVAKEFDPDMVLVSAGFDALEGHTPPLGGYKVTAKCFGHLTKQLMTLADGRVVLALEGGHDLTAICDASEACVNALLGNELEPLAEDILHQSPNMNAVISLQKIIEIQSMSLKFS
# [11] = target: T4, recombinant human HDAC8 (Homo sapiens, UniProt Q9BY41); test: Recombinant human HDAC8 activity assay; assay type: biochemical; conditions: 1 mM, recombinant human isoform
# T4 sequence (Q9BY41 1-377): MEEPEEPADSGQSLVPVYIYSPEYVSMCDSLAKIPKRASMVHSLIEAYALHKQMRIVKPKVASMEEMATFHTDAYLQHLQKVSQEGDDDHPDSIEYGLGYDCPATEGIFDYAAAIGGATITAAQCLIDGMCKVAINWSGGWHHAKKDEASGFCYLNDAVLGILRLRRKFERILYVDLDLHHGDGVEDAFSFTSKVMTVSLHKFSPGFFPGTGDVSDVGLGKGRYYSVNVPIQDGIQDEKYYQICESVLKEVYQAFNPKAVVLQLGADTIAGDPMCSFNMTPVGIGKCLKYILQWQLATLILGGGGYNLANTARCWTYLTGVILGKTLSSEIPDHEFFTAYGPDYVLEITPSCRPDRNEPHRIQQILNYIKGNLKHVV
# [12] = target: recombinant human HDAC5 (Homo sapiens, UniProt Q9UQL6); test: Recombinant human HDAC5 activity assay; assay type: biochemical; conditions: 1 mM, recombinant human isoform
# recombinant human HDAC5, sequence (Q9UQL6 whole entry, canonical isoform): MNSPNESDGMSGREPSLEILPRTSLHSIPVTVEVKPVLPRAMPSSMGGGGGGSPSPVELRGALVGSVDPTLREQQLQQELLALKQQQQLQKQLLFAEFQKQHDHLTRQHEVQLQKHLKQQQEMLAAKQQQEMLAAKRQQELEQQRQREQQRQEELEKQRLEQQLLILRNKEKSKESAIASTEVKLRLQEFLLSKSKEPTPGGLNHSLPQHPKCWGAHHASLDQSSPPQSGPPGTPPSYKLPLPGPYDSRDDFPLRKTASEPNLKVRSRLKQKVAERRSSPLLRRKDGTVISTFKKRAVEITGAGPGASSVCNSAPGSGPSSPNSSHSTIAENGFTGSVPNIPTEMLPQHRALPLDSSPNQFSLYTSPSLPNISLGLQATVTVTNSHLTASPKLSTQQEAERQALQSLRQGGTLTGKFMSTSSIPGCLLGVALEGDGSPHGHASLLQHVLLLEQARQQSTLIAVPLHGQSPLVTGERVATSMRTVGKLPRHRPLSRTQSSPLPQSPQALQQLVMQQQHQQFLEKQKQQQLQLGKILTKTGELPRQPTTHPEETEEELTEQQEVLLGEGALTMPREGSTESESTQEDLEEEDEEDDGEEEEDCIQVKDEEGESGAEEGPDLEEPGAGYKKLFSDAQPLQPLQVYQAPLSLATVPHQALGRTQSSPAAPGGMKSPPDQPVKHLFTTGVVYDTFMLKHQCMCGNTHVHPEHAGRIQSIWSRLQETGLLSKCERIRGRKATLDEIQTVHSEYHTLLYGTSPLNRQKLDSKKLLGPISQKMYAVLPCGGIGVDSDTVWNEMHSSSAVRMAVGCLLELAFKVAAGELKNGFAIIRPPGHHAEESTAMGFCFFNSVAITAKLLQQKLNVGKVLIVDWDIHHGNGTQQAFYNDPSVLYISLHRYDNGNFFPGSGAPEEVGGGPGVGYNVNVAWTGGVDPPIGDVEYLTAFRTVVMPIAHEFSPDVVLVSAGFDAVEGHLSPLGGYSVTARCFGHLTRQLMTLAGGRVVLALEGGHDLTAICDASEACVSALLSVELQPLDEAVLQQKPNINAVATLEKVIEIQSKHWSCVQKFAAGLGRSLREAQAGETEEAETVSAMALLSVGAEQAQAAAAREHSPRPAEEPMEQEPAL
# [13] = target: T5, recombinant human HDAC6 (Homo sapiens, UniProt Q9UBN7); test: Recombinant human HDAC6 activity assay; assay type: biochemical; conditions: 1 mM, recombinant human isoform
# T5 sequence (Q9UBN7 1-1215): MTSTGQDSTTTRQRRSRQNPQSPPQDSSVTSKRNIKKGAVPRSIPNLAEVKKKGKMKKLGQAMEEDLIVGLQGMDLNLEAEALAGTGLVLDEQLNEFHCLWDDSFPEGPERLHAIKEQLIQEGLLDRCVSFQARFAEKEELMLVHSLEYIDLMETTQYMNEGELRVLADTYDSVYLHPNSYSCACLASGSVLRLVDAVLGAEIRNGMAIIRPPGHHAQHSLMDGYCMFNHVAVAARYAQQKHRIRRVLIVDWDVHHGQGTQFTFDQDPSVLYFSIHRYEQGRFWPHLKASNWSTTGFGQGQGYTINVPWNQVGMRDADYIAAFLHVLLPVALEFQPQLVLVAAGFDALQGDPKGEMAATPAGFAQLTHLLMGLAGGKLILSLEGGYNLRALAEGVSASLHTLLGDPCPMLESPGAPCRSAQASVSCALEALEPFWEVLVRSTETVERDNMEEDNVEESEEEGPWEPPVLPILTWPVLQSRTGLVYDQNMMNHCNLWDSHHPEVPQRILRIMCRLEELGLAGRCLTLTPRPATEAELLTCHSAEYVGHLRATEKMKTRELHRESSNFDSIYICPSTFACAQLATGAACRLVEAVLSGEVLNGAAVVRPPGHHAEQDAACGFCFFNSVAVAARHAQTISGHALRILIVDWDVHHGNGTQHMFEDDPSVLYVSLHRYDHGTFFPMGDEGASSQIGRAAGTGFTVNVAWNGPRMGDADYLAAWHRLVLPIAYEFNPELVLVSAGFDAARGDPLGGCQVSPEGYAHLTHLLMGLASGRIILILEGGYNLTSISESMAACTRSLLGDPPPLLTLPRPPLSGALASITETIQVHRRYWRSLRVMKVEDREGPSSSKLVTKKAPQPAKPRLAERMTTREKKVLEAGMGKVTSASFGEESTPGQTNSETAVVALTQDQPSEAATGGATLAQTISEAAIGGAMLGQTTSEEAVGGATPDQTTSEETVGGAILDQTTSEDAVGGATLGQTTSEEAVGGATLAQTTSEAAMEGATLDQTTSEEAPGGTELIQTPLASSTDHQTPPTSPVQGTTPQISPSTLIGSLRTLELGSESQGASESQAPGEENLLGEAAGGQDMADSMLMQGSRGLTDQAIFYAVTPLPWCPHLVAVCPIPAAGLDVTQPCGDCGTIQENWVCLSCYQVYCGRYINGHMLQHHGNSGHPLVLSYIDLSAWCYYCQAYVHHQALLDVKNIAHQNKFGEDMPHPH
# [14] = target: recombinant human HDAC2 (Homo sapiens, UniProt Q92769); test: Recombinant human HDAC2 activity assay; assay type: biochemical; conditions: 1 mM, recombinant human isoform
# recombinant human HDAC2, sequence (Q92769 whole entry, canonical isoform): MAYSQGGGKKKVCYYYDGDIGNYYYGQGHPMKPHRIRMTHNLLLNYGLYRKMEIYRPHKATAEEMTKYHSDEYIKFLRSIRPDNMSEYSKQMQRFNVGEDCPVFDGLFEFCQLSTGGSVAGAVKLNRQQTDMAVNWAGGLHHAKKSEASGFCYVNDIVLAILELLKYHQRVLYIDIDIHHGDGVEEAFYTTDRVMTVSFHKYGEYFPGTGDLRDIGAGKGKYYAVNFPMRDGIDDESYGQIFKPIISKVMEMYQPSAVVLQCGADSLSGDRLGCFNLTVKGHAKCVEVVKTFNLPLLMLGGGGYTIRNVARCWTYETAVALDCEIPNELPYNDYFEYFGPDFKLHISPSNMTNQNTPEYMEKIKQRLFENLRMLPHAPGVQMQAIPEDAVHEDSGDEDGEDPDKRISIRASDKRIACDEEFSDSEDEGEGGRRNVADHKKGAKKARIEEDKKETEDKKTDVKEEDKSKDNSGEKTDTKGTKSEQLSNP
# [15] = MCF7 cells ectopically expressing SLC5A8, 1 mM
# [16] = vector-transfected MCF7 cells, 1 mM
# [17] = Na+-activation kinetics of 3-bromopyruvate-induced currents
# recombinant human HDAC3, sequence (O15379 whole entry, canonical isoform): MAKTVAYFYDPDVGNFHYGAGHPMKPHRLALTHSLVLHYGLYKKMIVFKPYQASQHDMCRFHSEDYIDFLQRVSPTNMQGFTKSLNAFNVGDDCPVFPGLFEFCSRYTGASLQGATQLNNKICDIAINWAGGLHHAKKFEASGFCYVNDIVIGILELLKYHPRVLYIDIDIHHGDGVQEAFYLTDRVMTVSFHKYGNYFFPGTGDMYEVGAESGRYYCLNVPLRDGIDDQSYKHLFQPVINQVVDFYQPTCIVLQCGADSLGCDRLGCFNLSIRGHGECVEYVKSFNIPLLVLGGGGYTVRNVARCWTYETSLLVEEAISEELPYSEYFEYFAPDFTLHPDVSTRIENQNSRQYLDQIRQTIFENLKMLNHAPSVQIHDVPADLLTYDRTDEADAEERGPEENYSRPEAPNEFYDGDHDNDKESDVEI
# recombinant human HDAC3, sequence (Q9Y618 395-489 partner limits assumed): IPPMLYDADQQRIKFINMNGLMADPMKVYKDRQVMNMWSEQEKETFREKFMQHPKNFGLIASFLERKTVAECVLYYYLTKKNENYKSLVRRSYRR
smiles,measurement,setting,value
CC(=O)C(=O)O [pyruvate],IC50,[1],40 ± 11 µM
same,inhibition of HDAC3,[1],inhibited HDAC1 and HDAC3 preferentially
same,colony formation (cell viability),[2],affected only minimally
same,inhibition at 1000 µM,[3],60%
same,inward currents in SLC5A8-expressing oocytes,[4],induced inward currents
same,substrate-induced current,"[4]; 1 mM, four oocytes, NaCl buffer",215 ± 45 nA
same,K0.5 (substrate concentration for half-maximal current),[4],312 ± 16 µM
same,apoptosis (FACS),[5]; [15],induced marked apoptosis
same,apoptosis (FACS),[5]; [16],not affected
same,change in HDAC activity,[6],no change in HDAC activity
same,inhibition at 1000 µM,[7],75%
same,IC50,[8],30 ± 14 µM
same,inhibition of HDAC1,[8],inhibited HDAC1 and HDAC3 preferentially
same,IC50,[9],652 ± 139 µM
same,inhibition at 1000 µM,"[9]; HRPE, read-out: inhibition of nicotinate uptake",55%
O=C(O)C(=O)CBr [3-bromopyruvate],effect on HDAC9,[10],no effect
same,inhibition of HDAC3,[1],marked inhibition
same,colony formation (cell viability),[2],affected only minimally
same,effect on HDAC8,[11],no effect
same,inward currents in SLC5A8-expressing oocytes,[4],induced inward currents
same,current induced relative to current induced by pyruvate,"[4]; 1 mM, pyruvate-induced current taken as 100%, four oocytes",approximately 50%
same,Hill coefficient for the activation of transport by Na+,[4]; [17],1.4 ± 0.2
same,K0.5 value for Na+ to activate the transport process,[4]; [17],32 ± 4 mM
same,transportable substrate or blocker of SLC5A8,[4]; conclusion from Na+-dependent inward currents at 1 mM,transportable substrate
same,K0.5 (substrate concentration for half-maximal current),[4],495 ± 25 µM
same,apoptosis (FACS),[5]; [15],induced marked apoptosis
same,"apoptosis (FACS), added effect after siRNA silencing","[5]; MCF7 cells with HDAC1 or HDAC3 silenced by siRNA, then 3-bromopyruvate 1 mM 48 h",did not have any added effect
same,apoptosis (FACS) after siRNA silencing,"[5]; MCF7 cells with HDAC2 silenced by siRNA, 3-bromopyruvate 1 mM 48 h",did not cause apoptosis
same,apoptosis (FACS),[5]; [16],not affected
same,change in HDAC activity,[6],no change in HDAC activity
same,effect on HDAC5,[12],no effect
same,inhibition of HDAC6,[13],"inhibited to a lesser, but significant, extent"
same,inhibition of HDAC2,[14],"inhibited to a lesser, but significant, extent"
same,inhibition of HDAC1,[8],marked inhibition
same,IC50,"[9]; read-out: IC50 for the inhibition of human SLC5A8 (nicotinate uptake), human SLC5A8 in HRPE cells, [14C]nicotinate 15 μM, 15 min, means ± S.E.",32 ± 9 µM
